Data: EP0804206B1, “ANTIFUNGAL AGENT CONTAINING CROTAMITON, AND SALICYCLIC ALDEHYDE” (Pierre Fabre Dermo-Cosmetique, priority 1995, dated 1996)

Test system: Trichophyton mentagrophytes n° 8611
Assay: Minimal fungistatic concentration (CMF) of the products alone and combined, with FIC index
Type: cell-based
Description: La synergie peut être mise-en évidence par le calcul des index FIC (Fractional Inhibitory Concentration) ou FBC (Fractional Bactericidal Concentration) des produits. Pour cela, on mesure la valeur de la CMF (ou concentration minimale fongistatique), ou de la CMϕ (ou concentration minimale fongicide), des principes actifs à tester vis-à-vis d'un type de germe.
Le FIC d'un produit A est défini comme : FICA (CMF du produit A en association)/(CMF du produit A seul) [formula]
L'association de deux antifongiques A et B est synergique si la somme FIC des rapports (FICA + FICB) est inférieure ou égale à 0,75.
On considère qu'il y a simple additivité pour des valeurs de FIC comprises entre 0,75 et 1,1, et indifférence dans l'intervalle compris entre 1,1 et 2; au-delà, l'association est notée antagoniste.
Après détermination des niveaux de concentrations minimales inhibitrices pour chaque souche, les associations entre les différents principes actifs sont testées. Le FIC Index =(CMI crotamiton associé)/(CMI crotamiton seul)+(CMI salicylaldéhyde associé)/(CMI salicylaldéhyde seul) [formula] est calculé.
Les activités antifongiques du crotamiton et du salicylaldéhyde ont été recherchées sur Trichophyton mentagrophytes.
Les concentrations minimales fongistatiques des produits seuls et associés sont présentées ici.
• * Souche • Trichophyton mentagrophytes n° 8611 • * Milieux de culture • Bouillon Sabouraud • Gélose Sabouraud • Eau distillée stérile • * Produits • Crotamiton (Borhinger, lot-209313) • Salicylaldéhyde Prolabo Rectapur encapsulé dans β cyclodextrines = formule aldéhydique
Les solutions-mère aqueuses des produits suivants ont été testées pour leur meilleure solubilité et sans artéfact d'activité antifongique : • Crotamiton : 0,2% dans 10% PEG 200 • Solution aqueuse à 10% aldhéhyde salicylique.
Les essais sont réalisés plusieurs fois car ces produits sont très volatils, rendant la lecture des tests très difficile. […]

CC=CC(=O)N(CC)c1ccccc1C [Crotamiton, N-éthyl-O crotonotoluidide]
fois moins de produit pour obtenir le même effet antifongique que les produits utilisés seuls (combined versus alone, formule aldéhydique at 10% aldehyde): 30 fois
CMF = Concentrations Minimales Fongistatiques, Seul (product alone, T. mentagrophytes calibrated at 10^6 spores per ml): 0,1%
CMF = Concentrations Minimales Fongistatiques, Associés (product in the binary combination Crotamiton - Formule aldéhydique, T. mentagrophytes 10^6 spores per ml): 0,003%
